Reference: the kinase profiling compilation of Christmann-Franck et al. (2016)
Where “and” joins values, the source holds several entries; their conditions need not be identical. Identical values can stand only once.

What was measured:
Test in all cases: radiometric filter-binding kinase assay, Kinase HotSpot
Conditions in all cases: compound 0.5 µM; ATP 10 µM
EPHA3 (human) = EPHA3 (human) (UniProt P29320)
ACVR1 (human) = ACVR1 (human) (UniProt Q04771)
NEK6 (human) = NEK6 (human) (UniProt Q9HC98)
PRKCG (human) = PRKCG (human) (UniProt P05129)
TBK1 (human) = TBK1 (human) (UniProt Q9UHD2)
GRK6 (human) = GRK6 (human) (UniProt P43250)
DAPK2 (human) = DAPK2 (human) (UniProt Q9UIK4)
PRKD3 (human) = PRKD3 (human) (UniProt O94806)
MAP3K7 TAB1 (human) = MAP3K7 TAB1 (human) (UniProt O43318+Q15750)
HIPK2 (human) = HIPK2 (human) (UniProt Q9H2X6)
ROCK1 (human) = ROCK1 (human) (UniProt Q13464)
STK10 (human) = STK10 (human) (UniProt O94804)
GRK7 (human) = GRK7 (human) (UniProt Q8WTQ7)
NEK9 (human) = NEK9 (human) (UniProt Q8TD19)
EPHA7 (human) = EPHA7 (human) (UniProt Q15375)
MAPK9 (human) = MAPK9 (human) (UniProt P45984)
DAPK1 (human) = DAPK1 (human) (UniProt P53355)
NEK7 (human) = NEK7 (human) (UniProt Q8TDX7)
MAPK10 (human) = MAPK10 (human) (UniProt P53779)
BRSK1 (human) = BRSK1 (human) (UniProt Q8TDC3)
CDK6 CCND1 (human) = CDK6 CCND1 (human) (UniProt Q00534+P24385)
EPHA1 (human) = EPHA1 (human) (UniProt P21709)
CAMK1 (human) = CAMK1 (human) (UniProt Q14012)
HIPK3 (human) = HIPK3 (human) (UniProt Q9H422)
MARK3 (human) = MARK3 (human) (UniProt P27448)
EPHB1 (human) = EPHB1 (human) (UniProt P54762)
DMPK (human) = DMPK (human) (UniProt Q09013)
IRAK4 (human) = IRAK4 (human) (UniProt Q9NWZ3)
CLK2 (human) = CLK2 (human) (UniProt P49760)
CAMK2D (human) = CAMK2D (human) (UniProt Q13557)
PRKX (human) = PRKX (human) (UniProt P51817)
FES (human) = FES (human) (UniProt P07332)
NEK11 (human) = NEK11 (human) (UniProt Q8NG66)
CAMK1G (human) = CAMK1G (human) (UniProt Q96NX5)
NLK (human) = NLK (human) (UniProt Q9UBE8)
STK39 (human) = STK39 (human) (UniProt Q9UEW8)
EPHB4 (human) = EPHB4 (human) (UniProt P54760)
CSNK1G3 (human) = CSNK1G3 (human) (UniProt Q9Y6M4)
EPHA2 (human) = EPHA2 (human) (UniProt P29317)
WNK3 (human) = WNK3 (human) (UniProt Q9BYP7)
SIK2 (human) = SIK2 (human) (UniProt Q9H0K1)
LYN (human) = LYN (human) (UniProt P07948)

Chain of MAPK9 (human) (P45984 whole entry, looked up): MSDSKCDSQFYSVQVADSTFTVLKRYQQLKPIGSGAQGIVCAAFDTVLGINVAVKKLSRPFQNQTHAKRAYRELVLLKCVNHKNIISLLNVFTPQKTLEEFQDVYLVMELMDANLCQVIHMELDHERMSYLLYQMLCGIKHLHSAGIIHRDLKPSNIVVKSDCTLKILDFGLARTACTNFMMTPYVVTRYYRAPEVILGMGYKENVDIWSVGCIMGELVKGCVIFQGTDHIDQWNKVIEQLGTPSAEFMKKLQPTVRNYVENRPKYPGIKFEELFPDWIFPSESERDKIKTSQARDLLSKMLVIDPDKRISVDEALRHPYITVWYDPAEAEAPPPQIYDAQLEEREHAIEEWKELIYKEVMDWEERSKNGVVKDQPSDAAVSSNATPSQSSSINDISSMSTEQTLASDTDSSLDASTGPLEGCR
Chain of CAMK1G (human) (Q96NX5 whole entry, looked up): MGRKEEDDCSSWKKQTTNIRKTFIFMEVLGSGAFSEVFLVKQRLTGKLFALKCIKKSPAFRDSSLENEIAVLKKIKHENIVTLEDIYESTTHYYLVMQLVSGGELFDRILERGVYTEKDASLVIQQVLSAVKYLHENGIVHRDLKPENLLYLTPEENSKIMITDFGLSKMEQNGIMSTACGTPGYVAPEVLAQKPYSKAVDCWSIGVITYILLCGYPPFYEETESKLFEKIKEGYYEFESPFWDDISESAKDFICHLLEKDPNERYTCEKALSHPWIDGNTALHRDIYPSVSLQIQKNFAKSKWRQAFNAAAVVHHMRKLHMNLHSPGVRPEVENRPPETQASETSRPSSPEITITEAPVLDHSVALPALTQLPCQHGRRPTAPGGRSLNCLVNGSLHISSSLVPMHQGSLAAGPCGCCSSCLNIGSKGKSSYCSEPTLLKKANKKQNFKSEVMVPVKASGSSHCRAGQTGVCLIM
Chain of HIPK3 (human) (Q9H422 whole entry, looked up): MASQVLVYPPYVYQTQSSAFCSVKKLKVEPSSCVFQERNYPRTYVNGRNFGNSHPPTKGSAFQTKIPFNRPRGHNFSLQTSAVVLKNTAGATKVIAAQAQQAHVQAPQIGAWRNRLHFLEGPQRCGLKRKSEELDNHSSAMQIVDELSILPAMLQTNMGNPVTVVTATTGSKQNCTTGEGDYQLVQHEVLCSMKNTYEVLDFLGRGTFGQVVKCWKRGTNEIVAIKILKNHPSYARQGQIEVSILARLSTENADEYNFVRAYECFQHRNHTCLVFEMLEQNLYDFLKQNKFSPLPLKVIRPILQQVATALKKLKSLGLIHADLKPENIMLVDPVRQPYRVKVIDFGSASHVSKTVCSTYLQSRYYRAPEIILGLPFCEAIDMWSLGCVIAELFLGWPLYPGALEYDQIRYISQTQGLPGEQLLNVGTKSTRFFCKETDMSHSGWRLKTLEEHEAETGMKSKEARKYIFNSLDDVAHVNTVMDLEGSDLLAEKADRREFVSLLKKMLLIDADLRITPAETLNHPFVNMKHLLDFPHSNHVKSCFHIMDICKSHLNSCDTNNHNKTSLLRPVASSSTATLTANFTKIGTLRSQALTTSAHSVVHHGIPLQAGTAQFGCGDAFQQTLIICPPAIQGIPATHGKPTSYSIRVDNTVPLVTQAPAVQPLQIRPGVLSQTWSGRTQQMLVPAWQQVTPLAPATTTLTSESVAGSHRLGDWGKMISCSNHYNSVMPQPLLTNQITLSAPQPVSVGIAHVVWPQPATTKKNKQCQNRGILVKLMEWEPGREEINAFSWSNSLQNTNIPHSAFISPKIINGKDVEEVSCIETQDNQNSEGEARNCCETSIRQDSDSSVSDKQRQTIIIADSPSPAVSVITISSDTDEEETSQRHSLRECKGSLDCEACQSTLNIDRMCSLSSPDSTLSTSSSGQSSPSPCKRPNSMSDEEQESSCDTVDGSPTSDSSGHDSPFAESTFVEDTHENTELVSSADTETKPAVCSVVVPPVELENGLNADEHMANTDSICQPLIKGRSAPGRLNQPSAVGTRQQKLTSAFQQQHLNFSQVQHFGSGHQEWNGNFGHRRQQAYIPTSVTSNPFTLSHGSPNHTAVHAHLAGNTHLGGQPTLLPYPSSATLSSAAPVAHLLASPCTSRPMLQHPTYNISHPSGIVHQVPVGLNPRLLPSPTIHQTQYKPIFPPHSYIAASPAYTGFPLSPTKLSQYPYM
Chain of SIK2 (human) (Q9H0K1 whole entry, looked up): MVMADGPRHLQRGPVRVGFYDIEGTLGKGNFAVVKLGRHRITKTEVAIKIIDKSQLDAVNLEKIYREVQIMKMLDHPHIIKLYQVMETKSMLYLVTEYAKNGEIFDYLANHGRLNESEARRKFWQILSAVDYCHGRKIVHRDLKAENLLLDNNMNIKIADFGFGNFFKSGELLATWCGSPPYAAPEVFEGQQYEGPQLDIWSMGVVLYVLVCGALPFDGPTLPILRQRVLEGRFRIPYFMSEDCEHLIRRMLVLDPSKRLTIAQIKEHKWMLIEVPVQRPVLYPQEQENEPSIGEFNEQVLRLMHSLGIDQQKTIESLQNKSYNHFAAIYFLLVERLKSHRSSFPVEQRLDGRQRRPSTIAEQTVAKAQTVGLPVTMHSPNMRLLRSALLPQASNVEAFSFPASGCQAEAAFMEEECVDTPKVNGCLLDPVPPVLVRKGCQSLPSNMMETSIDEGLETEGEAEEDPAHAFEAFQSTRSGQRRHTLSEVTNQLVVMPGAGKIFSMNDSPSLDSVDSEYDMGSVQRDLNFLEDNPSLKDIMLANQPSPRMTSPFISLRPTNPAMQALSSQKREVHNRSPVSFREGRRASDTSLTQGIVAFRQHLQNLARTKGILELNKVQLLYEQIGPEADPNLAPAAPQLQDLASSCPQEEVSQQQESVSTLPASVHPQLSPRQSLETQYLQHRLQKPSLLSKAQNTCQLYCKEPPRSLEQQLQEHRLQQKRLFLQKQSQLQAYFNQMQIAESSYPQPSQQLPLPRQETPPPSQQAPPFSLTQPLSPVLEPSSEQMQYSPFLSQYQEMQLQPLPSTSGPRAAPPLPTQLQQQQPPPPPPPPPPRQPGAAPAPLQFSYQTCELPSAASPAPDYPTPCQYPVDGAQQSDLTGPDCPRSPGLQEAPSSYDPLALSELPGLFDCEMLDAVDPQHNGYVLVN
Chain of GRK6 (human) (P43250 whole entry, looked up): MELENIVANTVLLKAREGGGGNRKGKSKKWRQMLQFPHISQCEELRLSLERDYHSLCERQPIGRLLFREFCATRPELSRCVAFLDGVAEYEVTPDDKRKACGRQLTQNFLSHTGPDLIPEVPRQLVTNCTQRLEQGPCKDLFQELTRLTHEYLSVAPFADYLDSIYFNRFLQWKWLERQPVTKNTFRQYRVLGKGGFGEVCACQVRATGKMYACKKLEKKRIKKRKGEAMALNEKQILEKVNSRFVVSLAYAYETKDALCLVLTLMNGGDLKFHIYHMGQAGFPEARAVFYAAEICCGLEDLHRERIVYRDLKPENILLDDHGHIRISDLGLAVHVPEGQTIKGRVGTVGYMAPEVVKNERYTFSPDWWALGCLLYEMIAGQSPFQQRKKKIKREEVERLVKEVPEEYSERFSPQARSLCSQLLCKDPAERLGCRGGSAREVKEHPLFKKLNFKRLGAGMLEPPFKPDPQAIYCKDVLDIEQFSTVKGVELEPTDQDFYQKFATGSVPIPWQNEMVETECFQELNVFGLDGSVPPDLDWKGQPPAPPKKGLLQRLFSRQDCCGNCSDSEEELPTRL
Chain of MARK3 (human) (P27448 whole entry, looked up): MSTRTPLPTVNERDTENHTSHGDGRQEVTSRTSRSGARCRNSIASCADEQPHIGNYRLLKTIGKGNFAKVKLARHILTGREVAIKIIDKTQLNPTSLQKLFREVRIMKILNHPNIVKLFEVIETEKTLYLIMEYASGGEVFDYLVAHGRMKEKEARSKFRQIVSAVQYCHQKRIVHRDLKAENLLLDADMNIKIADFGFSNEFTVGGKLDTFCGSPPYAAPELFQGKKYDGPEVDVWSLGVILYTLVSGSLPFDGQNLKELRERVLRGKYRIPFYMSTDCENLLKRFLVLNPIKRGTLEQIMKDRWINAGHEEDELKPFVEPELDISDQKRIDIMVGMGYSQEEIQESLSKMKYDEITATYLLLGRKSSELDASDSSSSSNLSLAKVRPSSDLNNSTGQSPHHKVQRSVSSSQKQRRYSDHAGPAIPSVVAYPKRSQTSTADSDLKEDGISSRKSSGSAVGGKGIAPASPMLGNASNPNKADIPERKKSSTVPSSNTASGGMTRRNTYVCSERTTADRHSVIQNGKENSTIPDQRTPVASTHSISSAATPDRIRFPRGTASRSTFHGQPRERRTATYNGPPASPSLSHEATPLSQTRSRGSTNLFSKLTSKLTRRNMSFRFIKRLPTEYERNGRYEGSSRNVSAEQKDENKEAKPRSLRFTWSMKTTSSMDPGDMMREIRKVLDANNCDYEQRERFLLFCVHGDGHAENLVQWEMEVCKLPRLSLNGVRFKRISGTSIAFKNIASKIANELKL
Chain of NEK11 (human) (Q8NG66 whole entry, looked up): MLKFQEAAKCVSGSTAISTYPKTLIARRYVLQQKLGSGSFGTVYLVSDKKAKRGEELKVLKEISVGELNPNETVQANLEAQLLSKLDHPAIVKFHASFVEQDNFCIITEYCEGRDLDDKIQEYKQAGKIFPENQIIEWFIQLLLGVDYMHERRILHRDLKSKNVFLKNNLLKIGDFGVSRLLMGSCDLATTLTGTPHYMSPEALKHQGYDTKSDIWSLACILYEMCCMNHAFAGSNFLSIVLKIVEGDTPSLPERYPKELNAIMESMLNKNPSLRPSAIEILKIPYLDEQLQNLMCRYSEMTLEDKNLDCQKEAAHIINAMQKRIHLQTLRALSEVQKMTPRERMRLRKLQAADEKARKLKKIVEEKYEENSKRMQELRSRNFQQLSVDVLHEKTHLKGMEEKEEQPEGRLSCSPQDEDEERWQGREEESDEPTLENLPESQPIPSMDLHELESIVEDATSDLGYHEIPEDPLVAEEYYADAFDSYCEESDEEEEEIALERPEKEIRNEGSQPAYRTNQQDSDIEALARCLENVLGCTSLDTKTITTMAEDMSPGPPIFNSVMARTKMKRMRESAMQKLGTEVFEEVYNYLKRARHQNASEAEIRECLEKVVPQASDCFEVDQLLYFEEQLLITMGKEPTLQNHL

## CCn1cnc2c(Nc3cccc(Cl)c3)nc(N[C@@H]3CCCC[C@@H]3N)nc21
EPHA3 (human)
  residual activity: 85.7%
ACVR1 (human)
  residual activity: 92.7%
NEK6 (human)
  residual activity: 102%
PRKCG (human)
  residual activity: 95%
TBK1 (human)
  residual activity: 92.8%
GRK6 (human)
  residual activity: 99.6%
DAPK2 (human)
  residual activity: 99%
PRKD3 (human)
  residual activity: 90.6%
MAP3K7 TAB1 (human)
  residual activity: 98.9%
HIPK2 (human)
  residual activity: 94%
ROCK1 (human)
  residual activity: 96.5%
STK10 (human)
  residual activity: 75.1%
GRK7 (human)
  residual activity: 97.9%
NEK9 (human)
  residual activity: 95.4%
EPHA7 (human)
  residual activity: 87.6%
MAPK9 (human)
  residual activity: 102%
DAPK1 (human)
  residual activity: 79.1%
NEK7 (human)
  residual activity: 86%
MAPK10 (human)
  residual activity: 98.8%
BRSK1 (human)
  residual activity: 92.4%
CDK6 CCND1 (human)
  residual activity: 60.9%
EPHA1 (human)
  residual activity: 79.6%
CAMK1 (human)
  residual activity: 103%
HIPK3 (human)
  residual activity: 102%
MARK3 (human)
  residual activity: 98.7%
EPHB1 (human)
  residual activity: 56.6%
DMPK (human)
  residual activity: 99.7%
IRAK4 (human)
  residual activity: 94.8%
CLK2 (human)
  residual activity: 26.6%
CAMK2D (human)
  residual activity: 89%
PRKX (human)
  residual activity: 102%
FES (human)
  residual activity: 83.5%
NEK11 (human)
  residual activity: 101%
CAMK1G (human)
  residual activity: 94.1%
NLK (human)
  residual activity: 90.8%
STK39 (human)
  residual activity: 106%
EPHB4 (human)
  residual activity: 70.8%
CSNK1G3 (human)
  residual activity: 45.9%
EPHA2 (human)
  residual activity: 86.7%
WNK3 (human)
  residual activity: 92%
SIK2 (human)
  residual activity: 89.1%

## Cn1cnc2cc3c(Nc4cccc(Br)c4)ncnc3cc21
EPHA3 (human)
  residual activity: 82.9%
ACVR1 (human)
  residual activity: 109%
NEK6 (human)
  residual activity: 98.1%
PRKCG (human)
  residual activity: 93.9%
TBK1 (human)
  residual activity: 87.7%
GRK6 (human)
  residual activity: 107%
DAPK2 (human)
  residual activity: 92.5%
PRKD3 (human)
  residual activity: 93.1%
MAP3K7 TAB1 (human)
  residual activity: 98.6%
HIPK2 (human)
  residual activity: 106%
ROCK1 (human)
  residual activity: 98.6%
STK10 (human)
  residual activity: 35.8%
GRK7 (human)
  residual activity: 106%
NEK9 (human)
  residual activity: 90%
EPHA7 (human)
  residual activity: 72%
MAPK9 (human)
  residual activity: 92.3%
DAPK1 (human)
  residual activity: 87.2%
NEK7 (human)
  residual activity: 99.4%
MAPK10 (human)
  residual activity: 104%
BRSK1 (human)
  residual activity: 81.6%
CDK6 CCND1 (human)
  residual activity: 107%
EPHA1 (human)
  residual activity: 84.4%
CAMK1 (human)
  residual activity: 106%
HIPK3 (human)
  residual activity: 107%
MARK3 (human)
  residual activity: 104%
EPHB1 (human)
  residual activity: 72.2%
DMPK (human)
  residual activity: 98.4%
IRAK4 (human)
  residual activity: 89.1%
LYN (human)
  residual activity: 52.4% and 75.8%
CLK2 (human)
  residual activity: 93.9%
CAMK2D (human)
  residual activity: 92.2%
PRKX (human)
  residual activity: 101%
FES (human)
  residual activity: 101%
NEK11 (human)
  residual activity: 101%
CAMK1G (human)
  residual activity: 94.2%
NLK (human)
  residual activity: 100%
STK39 (human)
  residual activity: 111%
CSNK1G3 (human)
  residual activity: 88.1%
EPHA2 (human)
  residual activity: 81.8%
WNK3 (human)
  residual activity: 95.8%
SIK2 (human)
  residual activity: 101%

## Nc1nccc(-c2c(-c3ccc(F)cc3)ncn2C2CCNCC2)n1
EPHA3 (human)
  residual activity: 97.4%
ACVR1 (human)
  residual activity: 86.5%
NEK6 (human)
  residual activity: 104%
PRKCG (human)
  residual activity: 87.8%
TBK1 (human)
  residual activity: 102%
GRK6 (human)
  residual activity: 98.2%
DAPK2 (human)
  residual activity: 94.1%
PRKD3 (human)
  residual activity: 37.9%
MAP3K7 TAB1 (human)
  residual activity: 96.9%
HIPK2 (human)
  residual activity: 106%
ROCK1 (human)
  residual activity: 103%
STK10 (human)
  residual activity: 90.3%
GRK7 (human)
  residual activity: 106%
NEK9 (human)
  residual activity: 100%
EPHA7 (human)
  residual activity: 94%
DAPK1 (human)
  residual activity: 88.2%
NEK7 (human)
  residual activity: 98.9%
MAPK10 (human)
  residual activity: 105%
BRSK1 (human)
  residual activity: 99.7%
CDK6 CCND1 (human)
  residual activity: 101%
EPHA1 (human)
  residual activity: 98.2%
CAMK1 (human)
  residual activity: 107%
HIPK3 (human)
  residual activity: 97.6%
MARK3 (human)
  residual activity: 103%
EPHB1 (human)
  residual activity: 99.9%
DMPK (human)
  residual activity: 99.3%
IRAK4 (human)
  residual activity: 123%
LYN (human)
  residual activity: 87.5% and 97.5%
CLK2 (human)
  residual activity: 99.7%
CAMK2D (human)
  residual activity: 100%
PRKX (human)
  residual activity: 96.8%
FES (human)
  residual activity: 103%
NEK11 (human)
  residual activity: 105%
CAMK1G (human)
  residual activity: 99.3%
NLK (human)
  residual activity: 12.1%
STK39 (human)
  residual activity: 93.5%
EPHB4 (human)
  residual activity: 91.5%
CSNK1G3 (human)
  residual activity: 83.9%
EPHA2 (human)
  residual activity: 102%
WNK3 (human)
  residual activity: 95.3%
SIK2 (human)
  residual activity: 64.7%

## Cn1sc(=O)n(Cc2ccccc2)c1=O
EPHA3 (human)
  residual activity: 107%
ACVR1 (human)
  residual activity: 102%
NEK6 (human)
  residual activity: 102%
PRKCG (human)
  residual activity: 86.6%
TBK1 (human)
  residual activity: 102%
GRK6 (human)
  residual activity: 104%
DAPK2 (human)
  residual activity: 94%
PRKD3 (human)
  residual activity: 95.9%
MAP3K7 TAB1 (human)
  residual activity: 105%
HIPK2 (human)
  residual activity: 99.6%
ROCK1 (human)
  residual activity: 94.6%
STK10 (human)
  residual activity: 98.1%
GRK7 (human)
  residual activity: 112%
NEK9 (human)
  residual activity: 98.2%
EPHA7 (human)
  residual activity: 105%
DAPK1 (human)
  residual activity: 97.9%
NEK7 (human)
  residual activity: 101%
MAPK10 (human)
  residual activity: 91.1%
BRSK1 (human)
  residual activity: 102%
CDK6 CCND1 (human)
  residual activity: 106%
EPHA1 (human)
  residual activity: 106%
CAMK1 (human)
  residual activity: 100%
HIPK3 (human)
  residual activity: 94.9%
MARK3 (human)
  residual activity: 97.1%
EPHB1 (human)
  residual activity: 100%
DMPK (human)
  residual activity: 100%
IRAK4 (human)
  residual activity: 107%
LYN (human)
  residual activity: 90.8% and 98.9%
CLK2 (human)
  residual activity: 98.5%
CAMK2D (human)
  residual activity: 98.9%
PRKX (human)
  residual activity: 102%
FES (human)
  residual activity: 101%
NEK11 (human)
  residual activity: 102%
CAMK1G (human)
  residual activity: 117%
NLK (human)
  residual activity: 105%
STK39 (human)
  residual activity: 97.9%
EPHB4 (human)
  residual activity: 100%
CSNK1G3 (human)
  residual activity: 114%
EPHA2 (human)
  residual activity: 96.5%
WNK3 (human)
  residual activity: 101%
SIK2 (human)
  residual activity: 98.6%

## CC(C)[C@H](CO)Nc1nc(Nc2cc(N)cc(Cl)c2)c2ncn(C(C)C)c2n1
EPHA3 (human)
  residual activity: 86.6%
ACVR1 (human)
  residual activity: 99.4%
NEK6 (human)
  residual activity: 111%
PRKCG (human)
  residual activity: 107%
TBK1 (human)
  residual activity: 86.6%
GRK6 (human)
  residual activity: 72.1%
DAPK2 (human)
  residual activity: 101%
PRKD3 (human)
  residual activity: 89.2%
MAP3K7 TAB1 (human)
  residual activity: 51.3%
HIPK2 (human)
  residual activity: 94.3%
ROCK1 (human)
  residual activity: 90%
STK10 (human)
  residual activity: 55.6%
GRK7 (human)
  residual activity: 79.3%
NEK9 (human)
  residual activity: 69.4%
EPHA7 (human)
  residual activity: 80.2%
MAPK9 (human)
  residual activity: 99.8%
DAPK1 (human)
  residual activity: 95.3%
NEK7 (human)
  residual activity: 89%
MAPK10 (human)
  residual activity: 94.6%
BRSK1 (human)
  residual activity: 93.1%
EPHA1 (human)
  residual activity: 76.9%
CAMK1 (human)
  residual activity: 95.3%
HIPK3 (human)
  residual activity: 99.4%
MARK3 (human)
  residual activity: 85.2%
EPHB1 (human)
  residual activity: 59.2%
DMPK (human)
  residual activity: 99.7%
IRAK4 (human)
  residual activity: 86.8%
CLK2 (human)
  residual activity: 17.7%
CAMK2D (human)
  residual activity: 87.3%
PRKX (human)
  residual activity: 101%
FES (human)
  residual activity: 69.2%
NEK11 (human)
  residual activity: 84.2%
CAMK1G (human)
  residual activity: 105%
NLK (human)
  residual activity: 93.9%
STK39 (human)
  residual activity: 83.7%
EPHB4 (human)
  residual activity: 58.4%
CSNK1G3 (human)
  residual activity: 13.4%
EPHA2 (human)
  residual activity: 67.5%
WNK3 (human)
  residual activity: 76.9%
SIK2 (human)
  residual activity: 104%
